Each block holds one compound with its values, some of them ahead of it. Where no end group is shown, it is not given here.
Key:
FRPR-3 = biological target: T1, FRPR-3 (Caenorhabditis elegans, UniProt Q66GU0); assay: In vitro GPCR activation assay (aequorin calcium bioluminescence, CHO/mtAEQ/Gα16 cells); assay type: cell-based, C. elegans; settings: mammalian cells expressing aequorin and promiscuous Gα16
T1 sequence (Q66GU0 1-360): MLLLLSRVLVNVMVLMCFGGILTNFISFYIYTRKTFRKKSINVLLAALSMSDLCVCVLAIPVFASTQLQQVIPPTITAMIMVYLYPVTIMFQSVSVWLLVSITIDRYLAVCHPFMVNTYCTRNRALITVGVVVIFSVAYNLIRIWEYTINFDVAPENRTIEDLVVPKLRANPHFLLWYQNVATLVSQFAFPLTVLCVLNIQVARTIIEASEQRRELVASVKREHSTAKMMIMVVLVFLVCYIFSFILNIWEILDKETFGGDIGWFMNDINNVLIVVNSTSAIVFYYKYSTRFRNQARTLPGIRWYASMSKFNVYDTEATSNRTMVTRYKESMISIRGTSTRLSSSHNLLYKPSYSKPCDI
Description: Cell-based activation assays were performed as described ([Beets et al., 2012]). FRPR-3/C26F1.6 cDNA was cloned into the pcDNA3.1(+) TOPO expression vector (Thermo Fisher Scientific). Receptor activation was studied in Chinese hamster ovary cells (CHO) stably expressing apo-aequorin (mtAEQ) targeted to the mitochondria as well as the human Gα16 subunit. The CHO-K1 cell line (PerkinElmer, ES-000-A2) was used for receptor activation assays. CHO/mtAEQ/Gα16 cells were transiently transfected with the FRPR-3 cDNA construct or the empty pcDNA3.1(+) vector using the Lipofectamine transfection reagent (Thermo Fisher Scientific). Cells expressing the receptor were shifted to 28°C 1 day later, and collected 2 days post-transfection in BSA medium (DMEM/HAM’s F12 with 15 mM HEPES, without phenol red, 0.1% BSA) loaded with 5 μM coelenterazine h (Thermo Fisher Scientific) for 4 h to reconstitute the holo-enzyme aequorin. Cells (25,000 cells/well) were exposed to synthetic peptides in BSA medium, and aequorin bioluminescence was recorded for 30 s on a MicroBeta LumiJet luminometer (PerkinElmer, Waltham Massachusetts) in quadruplicate. For dose-response evaluations, after 30 s of ligand-stimulated calcium measurements, Triton X-100 (0.1%) was added to the well to obtain a measure of the maximum cell Ca^2+ response. BSA medium without peptides was used as a negative control and 1 μM ATP was used to check the functional response of the cells. Cells transfected with the empty vector were used as a negative control (not shown). EC50 values were calculated from dose-response curves, constructed using a nonlinear regression analysis, with sigmoidal dose-response equation (Prism 6.0).

[1] = test system: C. elegans wild-type animals; assay: Locomotion assay after odorant stimuli; assay type: in vivo; settings: benzaldehyde 1% in ethanol, 2-nonanone undiluted, dropped in front of the nose
ASH neuron = assay: Nonanone sensitization assay, ASH calcium imaging in microfluidics chip; assay type: in vivo, C. elegans; settings: 5 s nonanone pulse (100%) then 0.5 M glycerol; GCaMP3; n = 9-10
Description: In microfluidics chip: Calcium imaging on 1-2 day old adult animals was performed in custom-designed microfluidic devices as described (using mechanical stimulus module from [Cho et al., 2018], [Cho et al., 2017]). These experiments were performed on a Leica DMIRB inverted microscope using a 40x air objective (N.A. 0.75). Video sequences were captured using a Hamamatsu EM-CCD camera with 100 ms exposure time. Simultaneous dual color imaging was performed using a DV2 beamsplitter (Photometrics) containing a GFP(520 nm)/RFP(605 nm) filter set. Excitation light for fluorescent imaging was delivered through a projector system ([Stirman et al., 2011]). […] Videos were recorded for 40-90 s following stimulus delivery. For analysis of calcium transients, fluorescence intensities for each frame were extracted using a custom MATLAB script ([Cho et al., 2018], [Cho et al., 2017]). […] GCaMP3 and RFP intensities were measured as the mean pixel intensity of the 100 brightest pixels in a circular region of interest (ROI) with a 10 pixel radius. […] All quantification is provided as the ratio of GCaMP3 to tagRFP fluorescence intensity. […]

ASH::ChR2 animals = assay: Cross-modal sensitization assay (reversal response to optogenetic ASH activation); assay type: in vivo, C. elegans
From the text: Channelrhodopsin experiments: 1-2 day old well-fed adult animals were used for all experiments. For LED stimulation: for experiments with flp-20 mutant animals, a custom setup was used as described in ([Ezcurra et al., 2011]); for experiments on frpr-3 mutant animals and RNAi transgenic lines, a custom setup was used as in ([Ardiel et al., 2016], [Ardiel et al., 2017]) using 480 nm Luxeon star LEDs with 450 uw/mm^2 power. In contrast to locomotion arousal experiments described above, these experiments used an automated tapper, which produces equivalent speed responses (Figure S1C). […] ATR (R2500 Sigma-Aldrich) was provided to animals by feeding as described in ([Rabinowitch et al., 2016b]). > 20 animals were placed onto the seeded plate and at least 4 plates were assayed per condition and genotype on multiple days for all cross-modal sensitization behavioral experiments. Video recording was started 5 min after the plate was placed on the stage. For animals exposed to a pre-arousing tap, 1 tap was used, followed by a 20 s interval and then a 2 s blue light stimulation. […]
To test if 2-nonanone exposure could sensitize ASH-dependent reversals, 200 μL undiluted nonanone was spread with a pipette around the rim inside the lid of Petri dish. […] For all experiments, reversal length was analyzed using MATLAB ([Ardiel et al., 2017], [Ezcurra et al., 2011], [Ramot et al., 2008]).

EC50 values for activation of FRPR-3 (in words) (FRPR-3): low nanomolar range
Compound: SVFRL-NH2 [SVFRLa]

EC50 values for activation of FRPR-3 (in words) (FRPR-3): low nanomolar range
Compound: AVFRM-NH2 [AVFRMa]

Second part, the compound before the results:

Compound: CCCCCCCC(C)=O [nonanone, 2-nonanone]
Increase in locomotion speed after stimulus [1]: can evoke locomotor arousal
Enhancement of ASH calcium responses to glycerol by prior odorant exposure (ASH neuron): did not significantly enhance ASH responses to glycerol
Enhancement of behavioral (reversal) response to optogenetic ASH activation by prior odorant exposure (ASH::ChR2 animals; 200 μL undiluted nonanone on lid, blue light 40 s later, n > 7): nor did it enhance behavioral responses to optogenetic activation of ASH

Compound: O=Cc1ccccc1 [benzaldehyde]
Effect of odorant presence on tap-evoked enhancement of ASH responses (ASH::ChR2 animals; 1% benzaldehyde in ethanol on lid, tap, 20 s wait, blue light 2 s, n>15): did not prevent enhancement of ASH responses by tap

Compound: AMMRF-NH2 [AMMRFa]
EC50 values for activation of FRPR-3 (in words) (FRPR-3): low nanomolar range
